In patent US11440923B2, “Substituted macrocyclic indole derivatives” (Bayer Aktiengesellschaft, priority 2017, dated 2022):
pEC50, pIC50: −log10 of the molar value. Counter-ions that a name gives are not always drawn. Like-named read-outs stand apart in the source and are kept apart here.

What was measured:
AMO-1 cells = experiment: Antiproliferation assay AMO-1 (Assay 7); type: cell-based; details: read-out: Antiproli AMO-1 IC50 median, 72 h, CellTiter-Glo
How it was run: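 IC50 values reflect growth relative to a day 0 baseline (CI) and DMSO vehicle (C0). Viable cells were quantified by CellTiter-Glo luminescence after 72 h treatment at 37 °C.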

SUDHL5 cells [1] = experiment: Induction of cytotoxicity in SUDHL5 cells (Assay 6); type: cell-based
How it was run: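 Overnight seeding, 37 °C; 5 h compound exposure; CellTiter-Glo, 15 min RT shake; luminescence read. No-cell medium control.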

BCL-2 = BCL-2 (Homo sapiens (Human), UniProt P10415); experiment: Protein-protein interaction assay BCL-2/Bad BH3 peptide (BCL-2 assay, TR-FRET); type: binding; details: read-out: BCL-2 Assay IC50 (median)
Chain of BCL-2 (P10415 1-211): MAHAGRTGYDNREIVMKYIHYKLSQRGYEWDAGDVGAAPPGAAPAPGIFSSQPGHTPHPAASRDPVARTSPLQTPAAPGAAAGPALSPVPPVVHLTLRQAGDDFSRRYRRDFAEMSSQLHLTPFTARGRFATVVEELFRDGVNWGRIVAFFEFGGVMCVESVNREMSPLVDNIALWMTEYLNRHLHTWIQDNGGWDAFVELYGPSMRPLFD
Protocol: Assay 3 Protein-Protein Interaction Assay: BCL-2/Bad BH3 Peptide (BCL-2 Assay)
The dose-dependent inhibition by the compounds described in this invention of the interaction between BCL-2 and the BH3 domain of Bad (both human) was determined using a steady state binding competition assay with time-resolved fluorescence energy transfer (TR-FRET) readout. For that purpose BCL-2 (amino acids 1-211, C-terminal fused to a hexahistidine (6×His) tag (SEQ ID 5) and a synthetic Bad BH3-derived peptide of sequence Biotin-PEG2-PEG2-[…]-Nle-[…]-amide (SEQ ID 4) served as protein receptor and tracer ligand respectively. The recombinant BCL-2 protein (expressed in E. coli) was purchased from BPS Bioscience (San Diego, Calif., USA). The Bad BH3-derived peptide can be obtained from e.g. Biosyntan (Berlin, Germany).
In the assay 11 different concentrations of each compound (0.1 nM, 0.33 nM, 1.1 nM, 3.8 nM, 13 nM, 44 nM, 0.15 μM, 0.51 μM, 1.7 μM, 5.9 μM and 20 μM) were typically measured as duplicates in the same microtiter plate. For that, 100-fold concentrated DMSO solutions were prepared by serial dilutions (1:3.4) of a 2 mM stock solution in a clear, 384-well microtiter plate (Greiner Bio-One, Frickenhausen, Germany). From there, 50 nl were transferred in a dark test plate (Greiner Bio-One, Frickenhausen, Germany). The assay was initiated by addition of 2 μL of a 2,5-fold concentrated His-BCL-2 solution (usually for a 1 nM end concentration in 5 μL reaction volume) in aqueous assay buffer [50 mM Tris/HCl pH 7, 100 mM sodium chloride (NaCl), 50 mM potassium fluoride (KF), 0.005% Tween-20, 2 mM DTT, 0.1% bovine gamma globulin (BGG)] to the compounds in the assay plate. This was followed by a 10-minute incubation step at 22° C. for pre-equilibration of the putative complex between His-BCL-2 and the compounds. After that, 3 μL of a 1.67-fold concentrated solution (in assay buffer) consisting of Bad BH3-derived peptide (1 nM end concentration) and TR-FRET detection reagents [1.67 nM anti-His-Eu cryptate and 1.67 nM streptavidin-XL665 (both from Cisbio Bioassays, Codolet, France)], were added.
The mixture was incubated in the dark for one hour at 22° C. and then overnight at 4° C. The formation of BCL-2/Bad complexes was determined by measuring the resonance energy transfer of the anti-His-Eu-cryptate antibody to the streptavidin-XL665 present in the reaction. For that purpose, the fluorescence emission at 620 nm and 665 nm after excitation at 330-350 nm was measured in a TR-FRET measuring instrument, for instance a Rubystar or a Pherastar (both from BMG Lab Technologies, Offenburg, Germany) or a Viewlux (Perkin-Elmer). The ratio of the emission at 665 nm and at 622 nm was used as indicator of the amount of BCL-2/Bad complexes present.
The resulting data (ratio) were normalized, taking 0% inhibition as the mean value of control measurements (usually 32 data points) where all reagents were included. In this case 50 nl DMSO were used instead of compounds. […] IC50 values were determined by regression analysis based on a 4 parameter equation (minimum, maximum, IC50, Hill; Y=Max+(Min−Max)/(1+(X/IC50)^Hill) using the Screener Software (Genedata).

SUDHL5 cells [2] = experiment: Induction of caspase-3/7 activity in SUDHL5 cells (Assay 4); type: cell-based
How it was run: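 Caspase-3/7 activity measured in DLBCL lines after 3 h compound exposure at 37 °C, following overnight plating; Caspase-Glo 3/7 luminescence read after 1 h at 37 °C. Medium-only background subtracted, values normalized to mean of DMSO-treated cells.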

[3] = 5 h, CellTiter-Glo; read-out: Cytotox SUDHL5 IC50 (median)
[4] = read-out: Caspase SUDHL5 EC50 (median); caspase-3/7 induction, 3 h
[5] = Homo sapiens, SU-DHL-5, 5 h, 5 h, CellTiter-Glo; read-out: Cytotox SUDHL5 IC50 (median)
[6] = Homo sapiens, SU-DHL-5, 3 h, caspase-3/7 induction, 3 h; read-out: Caspase SUDHL5 EC50 (median)
[7] = read-out: Cytotox SUDHL5 IC50 (median); 5 h, CellTiter-Glo

With `CCc1c2c(nn1C)C(CCN1CCC(F)(F)C1)OCCCCn1c(C(=O)O)c(CCCOc3cccc4cc(F)ccc34)c3ccc(Cl)c-2c31` (single isomer, unassigned; enantiomer 2) [Example 57, 4-chloro-15-[2-(3,3-difluoropyrrolidin-1-yl)ethyl]-3-ethyl-7-{3-[(6-fluoronaphthalen-1-yl)oxy]propyl}-2-methyl-2,10,11,12,13,15-hexahydropyrazolo[4′,3′:9,10][1,6]oxazacycloundecino[8,7,6-hi]indole-8-carboxylic Acid N-ethylethanamine Salt (Enantiomer 2)] the pIC50 (AMO-1 cells) was 5.34, the pIC50 (SUDHL5 cells [1]; [3]) was 5.17 and the pIC50 (BCL-2) was < 4.70. For the same compound, the pEC50 (SUDHL5 cells [2]; [4]) was 5.13.
With `CCc1c2c(nn1C)C(CCN1CCOCC1)OCCCCn1c(C(=O)O)c(CCCOc3cccc4cc(F)ccc34)c3ccc(Cl)c-2c31` (racemic) [Example 22, (rac)-4-chloro-3-ethyl-7-{3-[(6-fluoronaphthalen-1-yl)oxy]propyl}-2-methyl-15-[2-(morpholin-4-yl)ethyl]-2,10,11,12,13,15-hexahydropyrazolo[4′,3′:9,10][1,6]oxazacycloundecino[8,7,6-hi]indole-8-carboxylic Acid] the pIC50 (AMO-1 cells; Homo sapiens, AMO1, 72 h) was 7.49, the pIC50 (SUDHL5 cells [1]; [5]) was 7.96 and the pIC50 (BCL-2) was < 4.70. For the same compound, the pEC50 (SUDHL5 cells [2]; [6]) was 8.00.
`CCc1c2c(nn1C)C(CCOC)OCCCCn1c(C(=O)O)c(CCCOc3cccc4cc(F)ccc34)c3ccc(Cl)c-2c31` (single isomer, unassigned; enantiomer 1) [Example 42, (+)-4-chloro-3-ethyl-7-{3-[(6-fluoronaphthalen-1-yl)oxy]propyl}-15-(2-methoxyethyl)-2-methyl-2,10,11,12,13,15-hexahydropyrazolo[4′,3′:9,10][1,6]oxazacycloundecino[8,7,6-hi]indole-8-carboxylic Acid—N-ethylethanamine Salt (Enantiomer 1)] was tested, and the pIC50 (AMO-1 cells) was 7.01, the pIC50 (SUDHL5 cells [1]; [3]) was 7.26 and the pIC50 (BCL-2) was < 4.70. For the same compound, the pEC50 (SUDHL5 cells [2]; [4]) was 7.85.
With `CCc1c2c(nn1C)C(CCN1CCN(C)CC1)OCCCCn1c(C(=O)O)c(CCCOc3cccc4cc(F)ccc34)c3ccc(Cl)c-2c31` (racemic) [Example 68, 4-chloro-3-ethyl-7-{3-[(6-fluoronaphthalen-1-yl)oxy]propyl}-2-methyl-(15-rac)-[2-(4-methylpiperazin-1-yl)ethyl]-2,10,11,12,13,15-hexahydropyrazolo[4′,3′:9,10][1,6]oxazacycloundecino[8,7,6-hi]indole-8-carboxylic Acid—N-ethylethanamine Salt (Mixture 1 of Stereoisomers)] the pIC50 (AMO-1 cells) was 6.11 and the pIC50 (BCL-2) was < 4.70.
With `Cc1c2c(nn1C)C(CCN1CCOCC1)OCCCCn1c(C(=O)O)c(CCCOc3cccc4ccccc34)c3ccc(F)c-2c31` (single isomer, unassigned; enantiomer 2) [Example 9, 4-fluoro-2,3-dimethyl-15-[2-(morpholin-4-yl)ethyl]-7-{3-[(naphthalen-1-yl)oxy]propyl}-2,10,11,12,13,15-hexahydropyrazolo[4′,3′:9,10][1,6]oxazacycloundecino[8,7,6-hi]indole-8-carboxylic Acid—N-ethylethanamine Salt (Enantiomer 2)] the pIC50 (SUDHL5 cells [1]; [3]) was 5.27, the pIC50 (BCL-2) was < 4.70 and the pEC50 (SUDHL5 cells [2]; [4]) was 5.19.
`Cc1c2c(nn1C)C(C)OCCCCn1c(C(=O)O)c(CCCOc3cccc4ccccc34)c3cccc-2c31` (racemic) [Example 1, (rac)-2,3,15-trimethyl-7-[3-(naphthalen-1-yloxy)propyl]-2,10,11,12,13,15-hexahydropyrazolo[4′,3′:9,10][1,6]oxazacycloundecino[8,7,6-hi]indole-8-carboxylic Acid (Mixture of Stereoisomers)] was tested, and the pIC50 (SUDHL5 cells [1]; [5]) was 5.55, the pIC50 (BCL-2) was < 4.70 and the pEC50 (SUDHL5 cells [2]; [6]) was 5.64.
`Cc1c2c(nn1C)C(CCN1CCOCC1)OCCCCn1c(C(=O)O)c(CCCOc3cccc4ccccc34)c3ccc(F)c-2c31` (racemic) [Example 7, (rac)-4-fluoro-2,3-dimethyl-15-[2-(morpholin-4-yl)ethyl]-7-[3-(naphthalen-1-yloxy)propyl]-2,10,11,12,13,15-hexahydropyrazolo[4′,3′:9,10][1,6]oxazacycloundecino[8,7,6-hi]indole-8-carboxylic Acid] was tested, and the pIC50 (SUDHL5 cells [1]; [5]) was 6.62, the pIC50 (BCL-2) was < 4.70 and the pEC50 (SUDHL5 cells [2]; [6]) was 6.70.
In the case of `Cc1c2c(nn1C)C(C)OCCCCn1c(C(=O)O)c(CCCOc3cccc4ccccc34)c3cccc-2c31` (single isomer, unassigned; stereoisomer 1) [Example 2, 2,3,15-trimethyl-7-[3-(naphthalen-1-yloxy)propyl]-2,10,11,12,13,15-hexahydropyrazolo[4′,3′:9,10][1,6]oxazacycloundecino[8,7,6-hi]indole-8-carboxylic Acid Trifluoroacetic Acid Salt (Stereoisomer 1)], the pIC50 (SUDHL5 cells [1]; [7]) was 5.89, the pIC50 (BCL-2) was < 4.70 and the pEC50 (SUDHL5 cells [2]; [4]) was 5.92.
For `Cc1c2c(nn1C)C(C)OCCCCn1c(C(=O)O)c(CCCOc3cccc4ccccc34)c3cccc-2c31` (single isomer, unassigned; stereoisomer 2) [Example 3, 2,3,15-trimethyl-7-[3-(naphthalen-1-yloxy)propyl]-2,10,11,12,13,15-hexahydropyrazolo[4′,3′:9,10][1,6]oxazacycloundecino[8,7,6-hi]indole-8-carboxylic Acid Trifluoroacetic Acid Salt (Stereoisomer 2)], the pIC50 (SUDHL5 cells [1]; [7]) was < 4.48, the pIC50 (BCL-2) was < 4.70 and the pEC50 (SUDHL5 cells [2]; [4]) was < 4.48.
`Cc1c2c(nn1C)C(CCN1CCOCC1)OCCCCn1c(C(=O)O)c(CCCOc3cccc4ccccc34)c3cccc-2c31` (single isomer, unassigned; stereoisomer 2) [Example 6, 2,3-dimethyl-15-[2-(morpholin-4-yl)ethyl]-7-[3-(naphthalen-1-yloxy)propyl]-2,10,11,12,13,15-hexahydropyrazolo[4′,3′:9,10][1,6]oxazacycloundecino[8,7,6-hi]indole-8-carboxylic Acid (Stereoisomer 2)] was tested, and the pIC50 (SUDHL5 cells [1]; [3]) was 4.66, the pIC50 (BCL-2) was < 4.70 and the pEC50 (SUDHL5 cells [2]; caspase-3/7 induction, 3 h; read-out: Caspase SUDHL5 EC50 (median)) was 4.66.
With `CCc1c2c(nn1C)C(CCN1CCN(C)CC1)OCCCCn1c(C(=O)O)c(CCCOc3cccc4cc(F)ccc34)c3ccc(Cl)c-2c31` (racemic) [Example 71, (rac)-4-chloro-3-ethyl-7-{3-[(6-fluoronaphthalen-1-yl)oxy]propyl}-2-methyl-(15-rac)-[2-(4-methylpiperazin-1-yl)ethyl]-2,10,11,12,13,15-hexahydropyrazolo[4′,3′:9,10][1,6]oxazacycloundecino[8,7,6-hi]indole-8-carboxylic Acid—N-ethylethanamine Salt (Mixture 2 Od Stereoisomers)] the pIC50 (AMO-1 cells) was 6.68 and the pIC50 (BCL-2) was < 4.70.
